Laboratory results from patent publication US20200030262A1, “THERAPEUTIC SIGMA 1 RECEPTOR AGONISTS FOR TREATING LONG QT SYNDROME TYPE 1, TYPE 2, TYPE 6, TYPE 8 AND RELATED CHANNELOPATHIES” (priority 2017, published 2020).
pKi: −log10 of the molar value.

How the values were obtained:
[1] = system: control cardiomyocytes; test: Calcium imaging of spontaneous calcium transients in control cardiomyocytes; type: cell-based, human; conditions: 5 μM, 30 min
Description: (§1) The Nikon automatic microscope (Nikon Eclipse TiE with a motorized stage) connected to sCMOS camera (Andor Zyla sCMOS 4.2 MP) together with a stage top incubator (at 37° C., 5% CO2 and 20% O2, controlled by TOKAI HIT Hypoxia gas delivery system) were used for this experiment. Nikon objective lens 40× (Nikon CFI Plan Apo Lambda, NA 0.95) was used for single cell recordings and the cardiomyocyte culture media was used as bath solution. The cells were loaded with FluoForte calcium dye for calcium imaging following the manufacturer's instruction (ENZ-51016, Enzo Life Sciences). […] Thirty minutes after the treatment of Fluvoxamine or PRE-084, a second recording was acquired from the same cell. The calcium transient duration and the calcium transient half (50%) decay time from the recordings before and after treatment were analyzed. Paired student's t-test was used for statistics.

[2] = system: Timothy syndrome cardiomyocytes; test: Current-clamp action potential recordings in Timothy syndrome cardiomyocytes; type: cell-based, human; conditions: 2 hr; for paced action potential duration: paced 0.2 Hz
Description: The Timothy syndrome and control iPSCs were differentiated into cardiomyocytes following a protocol reported previously (Song et al., 2015). The cardiomyocytes were dissociated into single cells for whole-cell patch-clamp recordings at day 31 and used for patch clamping between day 35 and 45. Whole-cell patch-clamp recordings of iPSC-derived cardiomyocytes were conducted using a MultiClap 700B patch-clamp amplifier (Molecular Devices) and an inverted microscope equipped with differential interface optics (Nikon, Ti-U). The glass pipettes were prepared using borosilicate glass (Sutter Instrument, BF150-110-10) using a micropipette puller (Sutter Instrument, Model P-97). Voltage-clamp measurements were conducted using an extracellular solution consisting of 5 mM BaCl2, 160 mM TEA and 10 mM HEPES (pH7.4 at 25° C.) and a pipette solution of 125 mM CsCl, 0.1 mM CaCl2, 10 mM EGTA, 1 mM MgCl2, 4 mM MgATP and 10 mM HEPES (pH 7.4 with CsOH at 25° C.). The protocol for voltage-clamp recordings was that cells were held at −90 mV and then depolarized to −10 mV for 400 ms at a rate of 0.1 Hz for the Ba^2+ current recordings; cells were held at −90 mV, stimulated with a 2-s family of pulses from −90 to +20 for the current-voltage relationship of the Ba^2+ currents. The recordings were conducted under room temperature. […] The recordings were conducted at 37° C. Cardiac action potentials were stimulated (2 ms, 1 nA) in current clamp mode at 37° C. (0.2 or 0.5 Hz). Recorded action potentials were analyzed using Clampfit 10.4 (Axon Instruments). Control recordings were obtained from cardiomyocytes without treatment.
Patch-Clamp Electrophysiology of the cardiomyocytes was done as described in Example 1.

[3] = system: Timothy syndrome cardiomyocytes; test: Analysis of cardiomyocyte contractions, Timothy syndrome cardiomyocytes; type: cell-based, human; conditions: for contraction irregularity / spontaneous beating rate: 5 μM, 2 hours; for contraction irregularity, long-term repeated treatment / spontaneous beating rate, long-term repeated treatment: 10 μM twice a day for seven days; for rhythmic contraction and cell survival: 10 μM, 7 days, vs untreated control group at day 27; for effects on Timothy syndrome cardiomyocytes: contraction irregularity and beating rate
Description: […] The contraction analysis was performed as reported previously (Yazawa et al., 2011). The movies were taken before the treatment, and 2 hours after the treatment of each compound on the intact monolayer Timothy syndrome cardiomyocytes. The contraction rate and the irregularity value of each sample before and after treatment were compared using paired Student t-test.

[4] = system: control cardiomyocytes; test: Analysis of cardiomyocyte contractions, healthy control cardiomyocytes; type: cell-based, human; conditions: 5 μM, 2 hours
[5] = system: LQTS1 cardiomyocytes; test: Action potential recordings in LQTS1 cardiomyocytes; type: cell-based, human
Description: (§2) The Timothy syndrome and control iPSCs were differentiated into cardiomyocytes following a protocol reported previously (Song et al., 2015). The cardiomyocytes were dissociated into single cells for whole-cell patch-clamp recordings at day 31 and used for patch clamping between day 35 and 45. Whole-cell patch-clamp recordings of iPSC-derived cardiomyocytes were conducted using a MultiClap 700B patch-clamp amplifier (Molecular Devices) and an inverted microscope equipped with differential interface optics (Nikon, Ti-U). The glass pipettes were prepared using borosilicate glass (Sutter Instrument, BF150-110-10) using a micropipette puller (Sutter Instrument, Model P-97). Voltage-clamp measurements were conducted using an extracellular solution consisting of 5 mM BaCl2, 160 mM TEA and 10 mM HEPES (pH7.4 at 25° C.) and a pipette solution of 125 mM CsCl, 0.1 mM CaCl2, 10 mM EGTA, 1 mM MgCl2, 4 mM MgATP and 10 mM HEPES (pH 7.4 with CsOH at 25° C.). The protocol for voltage-clamp recordings was that cells were held at −90 mV and then depolarized to −10 mV for 400 ms at a rate of 0.1 Hz for the Ba^2+ current recordings; cells were held at −90 mV, stimulated with a 2-s family of pulses from −90 to +20 for the current-voltage relationship of the Ba^2+ currents. The recordings were conducted under room temperature. […] Recorded action potentials were analyzed using Clampfit 10.4 (Axon Instruments). […]

[6] = system: LQTS6 cardiomyocytes; test: Paced action potential recordings in LQTS6 cardiomyocytes; type: cell-based, human; conditions: 5 μM, 2 hr; paced 0.5 Hz; M54T mutation in MiRP1
[7] = system: Timothy syndrome cardiomyocytes; test: Calcium imaging (FluoForte) of spontaneous calcium transients in Timothy syndrome cardiomyocytes; type: cell-based, human; conditions: 5 μM, 30 min
Description: as §1

[8] = target: Sigma-1R (Homo sapiens, UniProt Q99720); conditions: cited from earlier work
[9] = system: sodium channels; conditions: reported (Johannessen et al., 2009); cited from earlier work
[10] = system: control littermate mice; test: Mouse electrocardiography, control littermate mice; type: in vivo; conditions: in drinking water
Description: (§3) Subcutaneous 4-lead electrocardiograms of isoflurane-anesthetized 12-week old mice were performed using emka ECG and recorded using iox 2.8.0.19. Recordings were conducted a day 4 and 11 after tamoxifen (Sigma-Aldrich, 50 μg/B.W.(g)/day/mouse, i.e., approximately 1 mg/day/mouse) was administrated at day 1-3. Dxm was resolved to drinking water. Total amount of taken dextromethorphan was estimated based on water consumption in each mouse (23-44 mg/kg). To obtain accurate amount of dextromethorphan administration in mice, the concentration of dextromethorphan in the plasma was measured and analyzed at Columbia University Biomarkers Core Laboratory. RR and QT intervals were measured manually using ecgAUTO v2.8.1.27, Excel and Prism 6/7 software.

[11] = system: Timothy syndrome iPSC-derived cardiomyocytes; test: GCaMP6f-based calcium imaging in Timothy syndrome iPSC-derived cardiomyocytes; type: cell-based, human; conditions: 5 uM, 2 hr
[12] = Dxm concentration in the plasma of mice; type: in vivo, mouse; conditions: adult normal mice, Dxm in drinking water
Description: as §3

[13] = target: T1, hERG current IKr (Homo sapiens, UniProt Q12809); type: cell-based; conditions: 5 uM, 2 hr; E-4031-sensitive current
T1 construct: hERG current IKr in Timothy syndrome iPSC-derived cardiomyocytes; endogenous in cells; host or cells: Timothy syndrome iPSC-derived cardiomyocytes
Description: (§4) The following pulse protocol was used: 5-s voltage clamp applied from 10 mV to 50 mV (Δ20 mV, holding at −40 mV, 0.1 Hz, at 25° C.). After recordings, the extracellular solution was switched to one containing 1 μM E-4031 (TOCRIS). E-4031-sensitive current was measured and analyzed as IKr current using Clampfit 10.4 (Axon Instruments).

[14] = system: isogenic control (Ctrl) iPSC-derived cardiomyocytes; test: Paced action potential recordings in isogenic control iPSC-derived cardiomyocytes; type: cell-based, human; conditions: 5 uM, 2 hr
Description: as §2

[15] = system: long QT syndrome type 2 iPSC-derived cardiomyocytes; test: Action potential recordings in long QT syndrome type 2 iPSC-derived cardiomyocytes; type: cell-based, human; conditions: 5 uM, 2 hr
Description: as §2

[16] = system: Timothy syndrome mice; test: Mouse electrocardiography, Timothy syndrome mouse model; type: in vivo; conditions: in drinking water
Description: A model mouse for Timothy Syndrome was generated by targeting the Rosa26 locus with a G406R mutant in the calcium channel Cacna1c gene (see FIG. 10A). The experimental design for inducing the expression of Timothy syndrome mutant with Dxm treatment (about 28 mg/kg) is shown in FIG. 10B.
as §3

[17] = system: hERG current IKr; type: cell-based, human; conditions: 5 uM, 2 hr; E-4031-sensitive current
Description: as §4

Sigma-1R, sequence (Q99720 whole entry, species assumed): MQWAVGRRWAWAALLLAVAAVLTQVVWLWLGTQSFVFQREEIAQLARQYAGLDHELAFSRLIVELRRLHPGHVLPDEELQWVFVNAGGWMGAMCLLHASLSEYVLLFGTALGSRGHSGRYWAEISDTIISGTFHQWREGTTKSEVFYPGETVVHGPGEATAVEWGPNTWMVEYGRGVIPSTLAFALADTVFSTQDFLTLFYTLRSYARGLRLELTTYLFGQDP
T1 sequence (Q12809 whole entry): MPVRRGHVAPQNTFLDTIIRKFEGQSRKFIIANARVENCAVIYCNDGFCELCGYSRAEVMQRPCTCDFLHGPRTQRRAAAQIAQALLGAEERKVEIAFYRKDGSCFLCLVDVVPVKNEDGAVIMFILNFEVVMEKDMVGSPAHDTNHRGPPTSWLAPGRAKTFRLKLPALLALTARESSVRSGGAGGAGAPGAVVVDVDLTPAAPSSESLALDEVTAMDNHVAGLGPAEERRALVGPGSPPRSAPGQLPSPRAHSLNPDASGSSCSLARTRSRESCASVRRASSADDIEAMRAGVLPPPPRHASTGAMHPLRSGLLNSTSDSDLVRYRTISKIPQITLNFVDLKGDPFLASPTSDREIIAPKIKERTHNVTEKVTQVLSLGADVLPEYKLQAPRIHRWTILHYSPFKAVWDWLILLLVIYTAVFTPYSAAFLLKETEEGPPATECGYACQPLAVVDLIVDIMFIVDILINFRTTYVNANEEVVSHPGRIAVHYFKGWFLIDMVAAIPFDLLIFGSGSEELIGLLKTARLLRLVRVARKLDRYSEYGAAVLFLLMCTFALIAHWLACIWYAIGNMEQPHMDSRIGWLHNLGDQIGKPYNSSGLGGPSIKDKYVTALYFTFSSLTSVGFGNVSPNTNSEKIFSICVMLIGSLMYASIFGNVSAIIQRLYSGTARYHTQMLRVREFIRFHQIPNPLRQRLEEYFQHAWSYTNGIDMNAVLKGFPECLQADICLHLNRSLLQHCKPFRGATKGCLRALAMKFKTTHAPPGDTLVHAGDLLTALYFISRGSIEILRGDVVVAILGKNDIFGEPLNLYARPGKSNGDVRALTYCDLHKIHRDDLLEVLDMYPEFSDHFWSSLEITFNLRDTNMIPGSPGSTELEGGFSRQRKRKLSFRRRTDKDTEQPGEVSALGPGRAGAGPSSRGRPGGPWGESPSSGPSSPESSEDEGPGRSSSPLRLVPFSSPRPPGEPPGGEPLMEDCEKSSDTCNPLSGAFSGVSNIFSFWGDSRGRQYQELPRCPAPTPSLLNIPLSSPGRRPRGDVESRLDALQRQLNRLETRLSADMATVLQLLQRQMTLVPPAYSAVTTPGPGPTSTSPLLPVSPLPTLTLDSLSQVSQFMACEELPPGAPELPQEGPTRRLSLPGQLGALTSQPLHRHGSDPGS

COCCCC/C(=N\OCCN)c1ccc(C(F)(F)F)cc1 [Fluvoxamine]
calcium transient duration in control cardiomyocytes [1]: did not significantly affect
calcium transient half decay time in control cardiomyocytes [1]: did not significantly affect
normal calcium transients in control cardiomyocytes [1]: did not significantly affect
paced action potential duration ([2]; 5 μM): reduced
contraction irregularity [3]: significantly decreased
spontaneous beating rate [3]: increased
contraction irregularity, long-term repeated treatment [3]: reduced
spontaneous beating rate, long-term repeated treatment [3]: significantly enhanced
rhythmic contraction and cell survival [3]: enhanced
contraction rhythmicity of control cardiomyocytes [4]: did not significantly affect
spontaneous beating rate of control cardiomyocytes [4]: significantly enhanced
prolonged paced action potentials (APD90) in LQTS1 cardiomyocytes ([5]; 5 μM, 2 hr, paced 0.5 Hz, G269S mutation in KCNQ1): significantly reduced
prolonged paced action potentials (APD90) in LQTS6 cardiomyocytes [6]: significantly reduced
abnormal spontaneous calcium transients [7]: alleviated
spontaneous calcium transient duration [7]: significantly reduced
spontaneous calcium transient half decay time [7]: significantly reduced

COc1ccc(CCN2CCN(CCCc3ccccc3)CC2)cc1OC [SA4503]
beating rate or contraction irregularity ([3]; 0.1 μM): no obvious improvement
contractions of Timothy syndrome cardiomyocytes ([3]; dose between 1 μM to 5 μM): stopped the contractions

Fc1ccc([C@@H]2CCNC[C@H]2COc2ccc3c(c2)OCO3)cc1 [paroxetine]
effects on Timothy syndrome cardiomyocytes [3]: no beneficial effects
affinity for sigma 1 receptor [8]: low affinity

O=C(OCCN1CCOCC1)C1(c2ccccc2)CCCCC1 [PRE-084]
calcium transient duration in control cardiomyocytes [1]: did not significantly affect
calcium transient half decay time in control cardiomyocytes [1]: did not significantly affect
normal calcium transients in control cardiomyocytes [1]: did not significantly affect
abnormal spontaneous action potentials ([2]; 5 μM): rescued
paced action potential duration ([2]; 5 μM): rescued
contraction irregularity [3]: decreased
spontaneous beating rate [3]: significantly increased
contraction irregularity, long-term repeated treatment [3]: reduced
spontaneous beating rate, long-term repeated treatment [3]: significantly enhanced
rhythmic contraction and cell survival [3]: enhanced
contraction rhythmicity of control cardiomyocytes [4]: did not significantly affect
spontaneous beating rate of control cardiomyocytes [4]: significantly enhanced
effects on sodium channels [9]: little effects
abnormal spontaneous calcium transients [7]: alleviated
spontaneous calcium transient duration [7]: significantly reduced
spontaneous calcium transient half decay time [7]: significantly reduced

CC(C)CC(=O)Nc1[nH]nc2c1CN(C(=O)C1CCN(C)CC1)C2(C)C [PHA-793887]
effects on Timothy syndrome cardiomyocytes [3]: positive effects

COc1ccc2c(c1)[C@]13CCCC[C@@H]1[C@H](C2)N(C)CC3 [dextromethorphan]
QT intervals in control littermate mice [10]: no significant effect
cardiac transient duration [11]: significantly shortened
cardiac transient frequency [11]: significantly increased
action potential duration (APD90) in Timothy syndrome iPSC-derived cardiomyocytes ([2]; 5 uM, paced): significantly shortened
plasma concentration of Dxm [12]: 5 to 10 ng/mL
IKr current in Timothy syndrome iPSC-derived cardiomyocytes [13]: significantly increased
action potential duration (APD90) in isogenic control cells [14]: not changed
pKi ([8]; read-out: Ki (Sigma-1R), known as Sigma-1R agonist): 6.82
action potential duration in long QT syndrome type 1 iPSC-derived cardiomyocytes ([5]; treated vs untreated): significantly shortened
action potential duration in long QT syndrome type 2 iPSC-derived cardiomyocytes [15]: significantly shortened
QT intervals in Timothy syndrome mice ([16]; approximately 28 mg/kg, day 4): significantly shortened
QT intervals in Timothy syndrome mice ([16]; day 11): significantly shortened
IKr current in long QT syndrome type 2 iPSC-derived cardiomyocytes [17]: significantly increased

COc1ccc(CNc2nc(NCc3ccc(OC)cc3)c3ncn(C4CCCCC4)c3n2)cc1 [Myoseverin-B]
effects on Timothy syndrome cardiomyocytes [3]: positive effects

CCCN(CCC)CCc1ccc(OC)c(OCCc2ccccc2)c1 [NE-100]
beneficial effects of Fluvoxamine under co-treatment with NE-100 ([3]; Fluvoxamine 5 μM + NE-100 5 μM, 2 hr): blocked
